Tests used:
Format in all cases: in vivo
Abutilon theophrasti [1] = test: Greenhouse pre-emergence (PRE) herbicidal test on ABUTH; conditions: PRE; for % activity / % activity solo application: ABUTH; for % activity: 18 DAT
Summary of the method: (§1)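 Visual 0–100 rating at 20 days after treatment; 0 = normal growth, 100 = no emergence or complete kill of shoots. Pre-emergent application to seeded pots of loamy sand (~3.0% humus), species-dependent temperature 10-25° C or 20-35° C.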

Amaranthus retroflexus [2] = test: Greenhouse pre-emergence (PRE) herbicidal test on AMARE; conditions: PRE; for % activity / % activity solo application: AMARE; for % activity: 18 DAT
Protocol: The culture containers used were plastic pots containing loamy sand with approximately 3.0% of humus as substrate. The seeds of the test plants were sown separately for each species.
The containers were irrigated gently to promote germination and growth and subsequently covered with transparent plastic hoods until the plants had rooted.
Depending on the species, the plants were kept at 10-25° C. and 20-35° C., respectively.
The test period extended over 2 to 4 weeks. During this time, the plants were tended and their response to the individual treatments was evaluated.
Evaluation was carried out using a scale from 0 to 100. 100 means no emergence of the plants, or complete destruction of at least the above-ground parts, and 0 means no damage or normal course of growth. A good herbicidal activity is given at values of at least 70, and very good herbicidal activity is given at values of at least 85.
As indicated application was either post emergent (POST) at the respective growth stage (GS) of the weed (BBCH code), or pre-emergent (PRE). […]

Ambrosia artemisiifolia = test: Greenhouse pre-emergence (PRE) herbicidal test on AMBEL; conditions: PRE, 20 DAT; for % activity solo application: AMBEL
Commelina benghalensis = test: Greenhouse pre-emergence (PRE) herbicidal test on COMBE; conditions: PRE; for % activity / % activity solo application: COMBE; for % activity: 18 DAT
Summary of the method: as §1

Echinochloa crus-galli [3] = test: Greenhouse pre-emergence (PRE) herbicidal test on ECHCG; conditions: PRE; for % activity / % activity solo application: ECHCG; for % activity: 18 DAT
Euphorbia heterophylla [4] = test: Greenhouse pre-emergence (PRE) herbicidal test on EPHHL; conditions: PRE; for % activity / % activity solo application: EPHHL; for % activity: 18 DAT
Summary of the method: as §1

Lolium multiflorum = test: Greenhouse pre-emergence (PRE) herbicidal test on LOLMU; conditions: PRE; for % activity: 18 DAT
Summary of the method: as §1

Setaria viridis = test: Greenhouse pre-emergence (PRE) herbicidal test on SETVI; conditions: PRE
Summary of the method: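 Damage was rated visually on a 0 to 100 scale at 20 days after treatment, where 0 meant normal growth and 100 meant no emergence or complete kill of above-ground parts. Compounds were applied in water to freshly sown loamy-sand pots.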

Digitaria sanguinalis = test: Greenhouse post-emergence (POST) herbicidal test on DIGSA; conditions: POST; for % activity / % activity solo application: DIGSA; for % activity: 18 DAT
Summary of the method: (§2)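 Visual damage rating on a 0–100 scale, 0 meaning normal growth and 100 complete kill of above-ground parts, taken 20 days after treatment. Spray applied post-emergence to plants 3–15 cm tall in loamy sand with approximately 3.0% humus.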

Echinochloa crus-galli [5] = test: Greenhouse post-emergence (POST) herbicidal test on ECHCG; conditions: POST; for % activity: ECHCG, 18 DAT
Summary of the method: as §2

Euphorbia heterophylla [6] = test: Greenhouse post-emergence (POST) herbicidal test on EPHHL; conditions: POST
Summary of the method: as §2

Alopecurus myosuroides = test: Greenhouse pre-emergence (PRE) herbicidal test on ALOMY; conditions: PRE, ALOMY; for % activity: 18 DAT; for % activity solo application: 20 DAT
Summary of the method: as §1

Abutilon theophrasti [7] = test: Greenhouse post-emergence (POST) herbicidal test on ABUTH; conditions: POST, ABUTH; for % activity: 18 DAT
Summary of the method: as §2

Amaranthus retroflexus [8] = test: Greenhouse post-emergence (POST) herbicidal test on AMARE; conditions: POST, AMARE, Indaziflam solo 1 gai/ha, 18 DAT
Summary of the method: as §2

Geranium pusillum = test: Greenhouse post-emergence (POST) herbicidal test on GERPU; conditions: POST, GERPU, 18 DAT
Summary of the method: as §2

## COCc1cnc(C2=NC(C)(C(C)C)C(=O)N2)c(C(=O)O)c1 (stereo not shown) [Imazamox, imazamox]
Abutilon theophrasti [1]; Abutilon theophrasti, pre-emergence, 480 h, 1 gai/ha, 20 DAT
  pest or weed control at 1 g/ha: 10%
Amaranthus retroflexus [2]; Amaranthus retroflexus, pre-emergence, 480 h, 2 gai/ha, 20 DAT
  pest or weed control at 2 g/ha: 25%
Ambrosia artemisiifolia; Ambrosia artemisiifolia, pre-emergence, 480 h, 1 gai/ha
  pest or weed control at 1 g/ha: 0%
Ambrosia artemisiifolia; Ambrosia artemisiifolia, pre-emergence, 480 h, 2 gai/ha, read-out: % activity
  pest or weed control at 2 g/ha: 0%
Commelina benghalensis; Commelina benghalensis, pre-emergence, 480 h, 1 gai/ha, 20 DAT
  pest or weed control at 1 g/ha: 0%
Commelina benghalensis; Commelina benghalensis, pre-emergence, 480 h, 2 gai/ha, 20 DAT, read-out: % activity
  pest or weed control at 2 g/ha: 0%
Echinochloa crus-galli [3]; Echinochloa crus-galli, pre-emergence, 480 h, 1 gai/ha, 20 DAT
  pest or weed control at 1 g/ha: 0%
Euphorbia heterophylla [4]; Euphorbia heterophylla, pre-emergence, 480 h, 1 gai/ha, 20 DAT
  pest or weed control at 1 g/ha: 10%
Euphorbia heterophylla [4]; Euphorbia heterophylla, pre-emergence, 480 h, 2 gai/ha, 20 DAT
  pest or weed control at 2 g/ha: 15%
Lolium multiflorum; Lolium multiflorum, pre-emergence, 480 h, 1 gai/ha, 20 DAT
  pest or weed control at 1 g/ha: 0%
Setaria viridis; Setaria viridis, pre-emergence, 480 h, 2 gai/ha, 20 DAT
  pest or weed control at 2 g/ha: 5%
Digitaria sanguinalis; Digitaria sanguinalis, post-emergence, 480 h, 2 gai/ha, 20 DAT
  pest or weed control at 2 g/ha: 55%
Echinochloa crus-galli [5]; Echinochloa crus-galli, post-emergence, 480 h, 2 gai/ha, 20 DAT
  pest or weed control at 2 g/ha: 55%
Euphorbia heterophylla [6]; Euphorbia heterophylla, post-emergence, 480 h, 1 gai/ha, 20 DAT
  pest or weed control at 1 g/ha: 10%
Euphorbia heterophylla [6]; Euphorbia heterophylla, post-emergence, 480 h, 2 gai/ha, 20 DAT
  pest or weed control at 2 g/ha: 10%

## Cc1ccc2c(c1)[C@H](Nc1nc(N)nc(C(C)F)n1)[C@@H](C)C2 (stereo partly shown) [Indaziflam, indaziflam]
Abutilon theophrasti [1]; Indaziflam solo 1 gai/ha
  % activity: 0%
Abutilon theophrasti [1]; Indaziflam solo 4 gai/ha
  % activity: 25%
Alopecurus myosuroides; Indaziflam solo 1 gai/ha
  % activity: 10%
Alopecurus myosuroides; Indaziflam solo 4 gai/ha
  % activity: 75%
Amaranthus retroflexus [2]; Indaziflam solo 1 gai/ha
  % activity: 10%
Amaranthus retroflexus [2]; Indaziflam solo 4 gai/ha
  % activity: 50%
Commelina benghalensis; Indaziflam solo 1 gai/ha
  % activity: 20%
Commelina benghalensis; Indaziflam solo 2 gai/ha
  % activity: 10%
Commelina benghalensis; Indaziflam solo 8 gai/ha
  % activity: 40%
Echinochloa crus-galli [3]; Indaziflam solo 1 gai/ha
  % activity: 30%
Echinochloa crus-galli [3]; Indaziflam solo 4 gai/ha
  % activity: 85%
Echinochloa crus-galli [3]; Indaziflam solo 8 gai/ha
  % activity: 80%
Euphorbia heterophylla [4]; Indaziflam solo 1 gai/ha
  % activity: 10%
Euphorbia heterophylla [4]; Indaziflam solo 4 gai/ha
  % activity: 5%
Lolium multiflorum; LOLMU, Indaziflam solo 1 gai/ha
  % activity: 10%
Lolium multiflorum; LOLMU, Indaziflam solo 2 gai/ha
  % activity: 10%
Lolium multiflorum; LOLMU, Indaziflam solo 4 gai/ha
  % activity: 40%
Setaria viridis; SETVI, Indaziflam solo 1 gai/ha, 18 DAT
  % activity: 40%
Abutilon theophrasti [7]; Indaziflam solo 2 gai/ha
  % activity: 15%
Abutilon theophrasti [7]; Indaziflam solo 4 gai/ha
  % activity: 30%
Amaranthus retroflexus [8]
  % activity: 65%
Digitaria sanguinalis; Indaziflam solo 1 gai/ha
  % activity: 0%
Digitaria sanguinalis; Indaziflam solo 2 gai/ha
  % activity: 5%
Digitaria sanguinalis; Indaziflam solo 8 gai/ha
  % activity: 20%
Echinochloa crus-galli [5]; Indaziflam solo 1 gai/ha
  % activity: 0%
Echinochloa crus-galli [5]; Indaziflam solo 2 gai/ha
  % activity: 0%
Echinochloa crus-galli [5]; Indaziflam solo 4 gai/ha
  % activity: 20%
Echinochloa crus-galli [5]; Indaziflam solo 8 gai/ha
  % activity: 60%
Euphorbia heterophylla [6]; EPHHL, Indaziflam solo 4 gai/ha, 18 DAT
  % activity: 40%
Geranium pusillum; Indaziflam solo 4 gai/ha
  % activity: 50%
Geranium pusillum; Indaziflam solo 8 gai/ha
  % activity: 50%

## FC(F)c1cc(-c2c(Cl)cccc2Oc2ncc(Cl)cn2)on1 [Rimisoxafen, rimisoxafen]
Abutilon theophrasti [1]; 4 gai/ha, 20 DAT
  % activity solo application: 0%
Abutilon theophrasti [1]; 8 gai/ha, 20 DAT
  % activity solo application: 5%
Abutilon theophrasti [1]; 16 gai/ha, 20 DAT
  % activity solo application: 5%
Abutilon theophrasti [1]; 32 gai/ha, 20 DAT
  % activity solo application: 35%
Alopecurus myosuroides; 4 gai/ha
  % activity solo application: 0%
Alopecurus myosuroides; 8 gai/ha
  % activity solo application: 0%
Alopecurus myosuroides; 16 gai/ha
  % activity solo application: 0%
Alopecurus myosuroides; 32 gai/ha
  % activity solo application: 0%
Amaranthus retroflexus [2]; 8 gai/ha, 20 DAT
  % activity solo application: 25%
Amaranthus retroflexus [2]; 16 gai/ha, 20 DAT
  % activity solo application: 75%
Ambrosia artemisiifolia; 4 gai/ha
  % activity solo application: 0%
Ambrosia artemisiifolia; 8 gai/ha
  % activity solo application: 0%
Ambrosia artemisiifolia; 16 gai/ha
  % activity solo application: 0%
Ambrosia artemisiifolia; 32 gai/ha
  % activity solo application: 0%
Commelina benghalensis; 4 gai/ha, 20 DAT
  % activity solo application: 0%
Commelina benghalensis; 8 gai/ha, 20 DAT
  % activity solo application: 10%
Commelina benghalensis; 16 gai/ha, 20 DAT
  % activity solo application: 0%
Commelina benghalensis; 32 gai/ha, 20 DAT
  % activity solo application: 30%
Echinochloa crus-galli [3]; 4 gai/ha, 20 DAT
  % activity solo application: 0%
Echinochloa crus-galli [3]; 8 gai/ha, 20 DAT
  % activity solo application: 0%
Echinochloa crus-galli [3]; 16 gai/ha, 20 DAT
  % activity solo application: 0%
Echinochloa crus-galli [3]; 32 gai/ha, 20 DAT
  % activity solo application: 0%
Euphorbia heterophylla [4]; 8 gai/ha, 20 DAT
  % activity solo application: 0%
Euphorbia heterophylla [4]; 16 gai/ha, 20 DAT
  % activity solo application: 0%
Lolium multiflorum; LOLMU, 8 gai/ha, 20 DAT
  % activity solo application: 0%
Setaria viridis; SETVI, 8 gai/ha, 20 DAT
  % activity solo application: 35%
Setaria viridis; SETVI, 16 gai/ha, 20 DAT
  % activity solo application: 35%
Abutilon theophrasti [7]; 16 gai/ha, 20 DAT
  % activity solo application: 80%
Digitaria sanguinalis; 4 gai/ha, 20 DAT
  % activity solo application: 5%
Digitaria sanguinalis; 8 gai/ha, 20 DAT
  % activity solo application: 5%
Digitaria sanguinalis; 16 gai/ha, 20 DAT
  % activity solo application: 10%
Digitaria sanguinalis; 32 gai/ha, 20 DAT
  % activity solo application: 20%
Euphorbia heterophylla [6]; EPHHL, 16 gai/ha, 20 DAT
  % activity solo application: 15%

From patent US20260007133A1, “HERBICIDAL COMPOSITION COMPRISING AZINE COMPOUNDS” (BASF SE, priority 2022, published 2026)
